Measured values: paper PMC3914206

Tests used:
Format in all cases: binding
Parameters in all cases: KINOMEscan: ABL1(F317L)-phosphorylated / KINOMEscan: ABL1(H396P)-nonphosphorylated / KINOMEscan: ABL1(H396P)-phosphorylated / KINOMEscan: ABL1(M351T)-phosphorylated / KINOMEscan: ABL1(T315I)-phosphorylated / KINOMEscan: ABL1-nonphosphorylated / KINOMEscan: ABL1-phosphorylated / KINOMEscan: ACVR2A / KINOMEscan: ACVR2B / KINOMEscan: ADCK3 / KINOMEscan: ADCK4 / KINOMEscan: AKT1 / KINOMEscan: AKT3 / KINOMEscan: ALK / KINOMEscan: ARK5 / KINOMEscan: AURKA / KINOMEscan: AURKC / KINOMEscan: BIKE / KINOMEscan: BMPR1A / KINOMEscan: BMPR1B / KINOMEscan: BMX / KINOMEscan: BRK / KINOMEscan: BRSK1 / KINOMEscan: BRSK2 / KINOMEscan: CAMK1 / KINOMEscan: CAMK1D / KINOMEscan: CAMK1G / KINOMEscan: CAMK2A / KINOMEscan: CAMK2B / KINOMEscan: AAK1 / KINOMEscan: CAMK2D / KINOMEscan: CAMK2G / KINOMEscan: ABL1(F317I)-nonphosphorylated / KINOMEscan: ABL1(F317I)-phosphorylated / KINOMEscan: ABL1(F317L)-nonphosphorylated: unit: % Ctrl
Conditions in all cases: Compound Concentration 10 µM
panel of 442 kinases [1] = target: T1, panel of 442 kinases (Homo sapiens, UniProt P11362)
T1 construct: purchased KINOMEscan
Description: (§1) We assessed the selectivity of members of this scaffold using the KINOMEscan methodology across a near comprehensive panel of 442 kinases [[18,27]].

panel of 442 kinases [2] = target: T2, panel of 442 kinases (Homo sapiens, UniProt Q8IY84)
T2 construct: purchased KINOMEscan
Description: as §1

panel of 442 kinases [3] = target: T3, panel of 442 kinases (Homo sapiens, UniProt Q9UQB9)
T3 construct: purchased KINOMEscan
T3 sequence (Q9UQB9 1-309): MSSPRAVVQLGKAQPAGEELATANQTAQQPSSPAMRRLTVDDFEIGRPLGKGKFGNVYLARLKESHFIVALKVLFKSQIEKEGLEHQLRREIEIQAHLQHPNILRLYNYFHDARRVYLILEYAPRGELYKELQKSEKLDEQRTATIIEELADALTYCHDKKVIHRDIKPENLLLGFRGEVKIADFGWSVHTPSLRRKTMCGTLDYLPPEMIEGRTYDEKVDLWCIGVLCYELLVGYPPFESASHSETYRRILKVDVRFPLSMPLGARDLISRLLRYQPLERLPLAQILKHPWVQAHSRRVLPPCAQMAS
Description: as §1

T1 sequence (P11362 22-822): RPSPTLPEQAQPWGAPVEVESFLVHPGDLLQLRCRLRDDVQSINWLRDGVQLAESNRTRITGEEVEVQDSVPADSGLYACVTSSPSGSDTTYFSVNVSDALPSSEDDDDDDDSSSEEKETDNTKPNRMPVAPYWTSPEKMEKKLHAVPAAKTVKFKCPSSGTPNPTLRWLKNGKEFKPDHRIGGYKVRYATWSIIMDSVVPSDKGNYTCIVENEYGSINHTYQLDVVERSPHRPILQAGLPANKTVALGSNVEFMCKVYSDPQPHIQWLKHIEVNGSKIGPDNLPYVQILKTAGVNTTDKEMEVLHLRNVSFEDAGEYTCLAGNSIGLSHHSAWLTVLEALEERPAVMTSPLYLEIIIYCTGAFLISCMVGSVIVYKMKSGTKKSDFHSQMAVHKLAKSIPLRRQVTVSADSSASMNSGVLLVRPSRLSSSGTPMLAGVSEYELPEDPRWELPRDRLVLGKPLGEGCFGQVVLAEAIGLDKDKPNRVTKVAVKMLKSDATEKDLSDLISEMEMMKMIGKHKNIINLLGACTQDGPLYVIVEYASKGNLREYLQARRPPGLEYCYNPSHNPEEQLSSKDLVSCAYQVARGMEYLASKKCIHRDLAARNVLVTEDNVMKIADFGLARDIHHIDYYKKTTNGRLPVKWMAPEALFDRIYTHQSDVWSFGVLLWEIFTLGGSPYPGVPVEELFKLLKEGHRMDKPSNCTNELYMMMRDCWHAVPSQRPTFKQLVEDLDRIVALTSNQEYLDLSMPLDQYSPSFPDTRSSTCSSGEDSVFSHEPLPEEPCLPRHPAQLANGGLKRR
T2 sequence (Q8IY84 whole entry): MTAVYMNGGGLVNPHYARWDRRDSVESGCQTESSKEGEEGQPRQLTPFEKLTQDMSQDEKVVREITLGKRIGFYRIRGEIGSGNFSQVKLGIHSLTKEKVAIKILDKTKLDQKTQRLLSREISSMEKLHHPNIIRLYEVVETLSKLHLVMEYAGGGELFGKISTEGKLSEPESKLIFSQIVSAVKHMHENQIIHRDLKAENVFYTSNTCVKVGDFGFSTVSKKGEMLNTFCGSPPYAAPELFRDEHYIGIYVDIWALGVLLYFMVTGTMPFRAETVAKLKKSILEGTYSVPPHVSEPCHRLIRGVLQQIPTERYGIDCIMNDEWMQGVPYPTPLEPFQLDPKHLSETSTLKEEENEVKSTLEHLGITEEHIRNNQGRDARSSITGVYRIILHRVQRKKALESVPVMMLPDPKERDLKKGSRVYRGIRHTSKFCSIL

Q: What does the source list for CCOc1cc(C(=O)N2CCC(N3CCN(C)CC3)CC2)ccc1Nc1ncc2c(n1)N(C1CCCC1)c1ccccc1C(=O)N2C [Compound 26]?
A: KINOMEscan: FGFR1 (panel of 442 kinases [1]): 100; KINOMEscan: NIM1 (panel of 442 kinases [2]): 100; KINOMEscan: AURKC (panel of 442 kinases [3]): 66

Q: Which “KINOMEscan: FGFR1” value (panel of 442 kinases [1]) does the source give for COc1cc(C(=O)N2CCC(N3CCN(C)CC3)CC2)ccc1Nc1ncc2c(n1)N(C1CCCC1)c1ccccc1C(=O)N2C [Compound 25, 11-cyclopentyl-2-((2-methoxy-4-(4-(4-methylpiperazin-1-yl)piperidine-1-carbonyl)phenyl)amino)-5-methyl-5H-benzo[e]pyrimido[5,4-b][1,4]diazepin-6(11H)-one] here?
A: 100

Q: And the “KINOMEscan: NIM1” value (panel of 442 kinases [2])?
A: 100

Q: What about the “KINOMEscan: AURKC” value (panel of 442 kinases [3]) of the same compound?
A: 38

Q: For COc1cc(C(=O)N2CCC(N3CCN(C)CC3)CC2)ccc1Nc1ncc2c(n1)N1CCc3cccc(c31)C(=O)N2C [Compound 24], which “KINOMEscan: FGFR1” value (panel of 442 kinases [1]) is on record?
A: 83

Q: And the “KINOMEscan: AURKC” value (panel of 442 kinases [3])?
A: 50

Q: Which results are given for COc1cc(C(=O)N2CCC(N3CCN(C)CC3)CC2)ccc1Nc1ncc2c(n1)N(C)c1ccccc1C(=O)N2C [15 (LRRK2-IN-1)]?
A: KINOMEscan: FGFR1 (panel of 442 kinases [1]): 86; KINOMEscan: NIM1 (panel of 442 kinases [2]): 100; KINOMEscan: AURKC (panel of 442 kinases [3]): 50
